Data as given in patent US4529549A, “Spergualin-related compounds and process for the preparation thereof” (Zaidan Hojin Biseibutsu Kagaku Kenkyu Kai, priority 1982, dated 1985).
Converted amounts (≈) assume the structure as drawn. Counter-ions that a name gives are not always drawn. Like-named read-outs stand apart in the source and are kept apart here.

Assays:
[1] = tested on: Bacillus subtilis PCI219; experiment: Growth-inhibiting action on Bacillus subtilis (agar plate MIC); assay type: cell-based; conditions: nutrient agar, 20 hours at 37° C.
Description: Each of the compounds of this invention was dissolved in nutrient agar media to final concentrations of 100, 50, 25, 12.5, 6.25, 3.13 and 1.56 μg/ml, to prepare agar plates for testing. Bacillus subtilis PCI219 was adjusted to a content of 1×10^6 viable cells/ml, in a culture broth, and a loopful of the broth was applied onto the agar plates. The plates were incubated for 20 hours at 37° C. under stationary conditions, and observed for the formation of colonies of Bacillus subtilis. The lowest of the concentrations at which no colonies were formed was taken to be minimum inhibitory concentration (MIC).

[2] = tested on: mouse leukemia L1210 cells; experiment: In vitro proliferation-inhibiting action on mouse leukemia L1210 cells; assay type: cell-based; conditions: 48 hours at 37° C.
Description: Leukemia L1210 cells (1×10^5 /0.2 ml) were transplanted to female DBA/2 mice intraperitoneally. four days later, the ascitic fluid was collected and centrifuged to obtain proliferated L1210 cells. The L1210 cells collected were added to RPMI1640 medium containing bovine fetal serum and 2-mercaptoethanol, to obtain a suspension of L1210 cells having a final concentration of 5×10^4 cells/0.9 ml. Each of the compounds of this invention was dissolved in said culture medium to prepare solutions with final concentrations ranging from 0.062 to 100 μg/ml. 0.9 ml of the L1210 cell suspension and 0.1 ml of each test solution were mixed in petri dishes, and incubated for 48 hours at 37° C. in an incubator under an atmosphere of carbon dioxide gas. The number of L1210 cells was counted before and after the incubation, and that concentration of the compound which inhibited the proliferation of L1210 cells by 50% of the control's proliferation was determined (IC50).

[3] = Stability of the compounds in aqueous solutions (HPLC residual content); assay type: physicochemical; conditions: for remaining at 12 h / remaining at 24 h / remaining at 48 h / remaining at 72 h / remaining at 120 h / remaining at 168 h: water; for Residual content (%) of the compound in an aqueous solution: 0.5 (w/w)% in water, 40°±1° C., initial content = 100%
Description: Each of the compounds of this invention was dissolved in water to a concentration of 0.5 (w/w)%. The aqueous solution was maintained at 40°±1° C., and sampled at certain time intervals. Each sample was subjected to high-performance liquid chromatographic analysis to measure the area of the peak of the compound at each sampling time, and to calculate the ratio of the area of the peak after the indicated period of time to that at the first sampling time. The results of the calculation were used to determine the contents (%) of the compound of this invention in the aqueous solution after the indicated periods of time, with the initial content of said compound set at 100%.

[4] = Bacillus subtilis, PCI219, read-out: MIC

Row | MIC [1, 4] | IC50 [2] | remaining at 12 h [3] | remaining at 24 h [3] | remaining at 48 h [3] | remaining at 72 h [3] | remaining at 120 h [3] | remaining at 168 h [3] | MIC [1] | Residual content (%) of the compound in an aqueous solution ([3]; 12 hr) | Residual content (%) of the compound in an aqueous solution ([3]; 24 hr) | Residual content (%) of the compound in an aqueous solution ([3]; 48 hr) | Residual content (%) of the compound in an aqueous solution ([3]; 72 hr) | Residual content (%) of the compound in an aqueous solution ([3]; 120 hr) | Residual content (%) of the compound in an aqueous solution ([3]; 168 hr) | SMILES
1 | 6.25 µg/mL | 0.95 µg/mL | 99.3% | 99.5% | 100% | 99.6% | 99.7% | 100% | – | – | – | – | – | – | – | N=C(N)NCCCC[C@H](O)CC(=O)N[C@@H](CO)C(=O)NCCCCNCCCN [Compound 3, 10-[N--(7-guanidino-3(S)--hydroxyheptanoyl)-L-seryl]-1,5,10-triazadecane trihydrochloride]
2 | > 100 µg/mL | 2.8 µg/mL | 99.8% | 99.5% | 99.9% | 100% | 101% | 100% | – | – | – | – | – | – | – | N=C(N)NCCCCCCC(=O)N[C@@H](Cc1ccccc1)C(=O)NCCCCNCCCN [Compound 13, 10-[N--(7-guanidinoheptanoyl)-L-phenylalanyl]-1,5,10-triazadecane trihydrochloride]
3 | > 100 µg/mL | 70 µg/mL | 99.7% | 99.9% | 99.8% | 100% | 100% | 99.9% | – | – | – | – | – | – | – | CC(C)C[C@H](NC(=O)CCCCCCNC(=N)N)C(=O)NCCCCNCCCN [Compound 9, 10-[N--(7-guanidinoheptanoyl)-L-leucyl]-1,5,10-triazadecane trihydrochloride]
4 | 25 µg/mL | 0.84 µg/mL | 100% | 100% | 99.6% | 99.6% | 99.9% | 100% | – | – | – | – | – | – | – | N=C(N)NCCCCCCC(=O)NCCC(=O)NCCCCNCCCN [Compound 6, 10-[N--(7-guanidinoheptanoyl)-β-alanyl]-1,5,10-triazadecane trihydrochloride]
5 | 25 µg/mL | 1.9 µg/mL | 99.9% | 100% | 99.8% | 99.9% | 100% | 99.8% | – | – | – | – | – | – | – | N=C(N)NCCCCCCC(=O)NCCCC(=O)NCCCCNCCCN [Compound 7, 10-[N--(7-guanidinoheptanoyl)-γ-aminobutanoyl]-1,5,10-triazadecane trihydrochloride]
6 | 50 µg/mL | 51 µg/mL | 99.1% | 99% | 99.6% | 99.5% | 99.9% | 99.6% | – | – | – | – | – | – | – | N=C(N)NCCCCCCC(=O)N[C@@H](Cc1cnc[nH]1)C(=O)NCCCCNCCCN [Compound 14, 10-[N--(7-guanidinoheptanoyl)-L-histidyl]-1,5,10-triazadecane trihydrochloride]
7 | 12.5 µg/mL | 3.6 µg/mL | 101% | 100% | 100% | 99.7% | 99.6% | 100% | – | – | – | – | – | – | – | N=C(N)NCCCCCCC(=O)N[C@H](CO)C(=O)NCCCCNCCCN [Compound 4, 10-[N--(7-guanidinoheptanoyl)-D-seryl]-1,5,10-triazadecane trihydrochloride]
8 | 12.5 µg/mL | 1.5 µg/mL | 100% | 99.4% | 99.7% | 99.9% | 100% | 99.7% | – | – | – | – | – | – | – | N=C(N)NCCCCCCC(=O)N[C@@H](CCCNC(=N)N)C(=O)NCCCCNCCCN [Compound 12, 10-[N--(7-guanidinoheptanoyl)-L-arginyl]-1,5,10-triazadecane trihydrochloride]
9 | > 100 µg/mL | – | 100% | 100% | 99.6% | 99.8% | 99.8% | 100% | – | – | – | – | – | – | – | N=C(N)NCCCCCCC(=O)N1CCC[C@H]1C(=O)NCCCCNCCCN [Compound 8, 10-[N--(7-guanidinoheptanoyl)-L-prolyl]-1,5,10-triazadecane trihydrochloride]
10 | 100 µg/mL | 180 µg/mL | 99.2% | 99.8% | 99.1% | 100% | 99.6% | 100% | – | – | – | – | – | – | – | C[C@@H](O)[C@H](NC(=O)CCCCCCNC(=N)N)C(=O)NCCCCNCCCN [Compound 15, 10-[N--(7-guanidinoheptanoyl)-L-threonyl]-1,5,10-triazadecane trihydrochloride]
11 | 6.25 µg/mL | 11.3 µg/mL | 99.6% | 100% | 99.8% | 99.7% | 100% | 99.3% | – | – | – | – | – | – | – | N=C(N)NCCCCCCCCC(=O)N[C@@H](CO)C(=O)NCCCCNCCCN [Compound 17, 10-[N--(9-guanidinononanoyl)-L-seryl]-1,5,10-triazadecane trihydrochloride]
12 | – | – | – | – | – | – | – | – | > 100 µg/mL | 99.5% | 99.7% | 101% | 99.5% | 100% | 99.3% | Cl.Cl.Cl.N=C(N)NCCCCCCC(=O)N[C@@H](CCC(N)=O)C(=O)NCCCCNCCCN [Compound 11, 10-[N--(7-guanidinoheptanoyl)-L-glutaminyl]-1,5,10-triazadecane trihydrochloride]
13 | 25 µg/mL | 37 µg/mL | 99.8% | 99.8% | 100% | 99.6% | 99% | 99.9% | – | – | – | – | – | – | – | C[C@H](NC(=O)CCCCCCNC(=N)N)C(=O)NCCCCNCCCN [Compound 5, 10-[N--(7-guanidinoheptanoyl)-L-alanyl]-1,5,10-triazadecane trihydrochloride]
14 | > 100 µg/mL | 130 µg/mL | 99.9% | 99.4% | 99.8% | 100% | 99.8% | 99.9% | – | – | – | – | – | – | – | N=C(N)NCCCCCCC(=O)N[C@@H](CC(=O)O)C(=O)NCCCCNCCCN [Compound 10, 10-[N--(7-guanidinoheptanoyl)-L-asparthyl]-1,5,10-triazadecane trihydrochloride]
15 | 100 µg/mL (≈ 241 µM) | 150 µg/mL (≈ 361 µM) | 100% | 99.5% | 99.7% | 99.3% | 99.7% | 99.5% | – | – | – | – | – | – | – | N=C(N)NCCCCCCC(=O)NC(CCO)C(=O)NCCCCNCCCN (racemic) [Compound 18]

Row | SMILES | MIC [1, 4] | IC50 [2] | remaining at 12 h [3] | remaining at 24 h [3] | remaining at 48 h [3] | remaining at 72 h [3] | remaining at 120 h [3] | remaining at 168 h [3] | MIC [1] | Residual content (%) of the compound in an aqueous solution ([3]; 12 hr) | Residual content (%) of the compound in an aqueous solution ([3]; 24 hr) | Residual content (%) of the compound in an aqueous solution ([3]; 48 hr) | Residual content (%) of the compound in an aqueous solution ([3]; 72 hr) | Residual content (%) of the compound in an aqueous solution ([3]; 120 hr) | Residual content (%) of the compound in an aqueous solution ([3]; 168 hr)
16 | CC(=O)O[C@@H](CCCCNC(=N)N)CC(=O)NCC(=O)NCCCCNCCCN [Compound 16, 10-[N--(7-guanidino-3(S)--acetoxyheptanoyl)-glycyl-1,5,10-triazadecanetrihydrochloride] | > 100 µg/mL | – | 99.9% | 99.5% | 99.6% | 99.2% | 99.6% | 99.6% | – | – | – | – | – | – | –
